For 13 molecules, IC50, GI50 and inhibition results are on record in patent US8765748B2, “Indazolyl, benzimidazolyl, benzotriazolyl substituted indolinone derivatives as kinase inhibitors useful in the treatment of cancer” (University Health Network, priority 2007, dated 2014).

One assay addresses T1, PLK1 (Homo sapiens, UniProt P53350).
T1 construct: purchased Invitrogen PV3501
Briefly: PLK1 Inhibition Assay (Z-Lyte). The assay is classed as biochemical. Conditions: for IC50: 25 μM ATP, 8 nM PLK1, read-out: PLK1 IC50 Ranges; for inhibition at 10 µM: 10 μM compound, read-out: PLK1 relative inhibition percentage at a dose of 10 μM. The procedure:
PLK1 inhibition was determined using the Z-Lyte assay kit from Invitrogen (cat #PV3802). […] The % inhibition values were determined according to the manufacturer's directions and IC50 values were obtained using a non-linear 4 point logistic curve fit (XLfit4, IDBS)

The target in another assay is T2, human PLK4 (Homo sapiens, UniProt O00444).
T2 construct: amino terminal GST fusion of residues 1-391 of human PLK4; made in house; host or cells: E. coli
T2 sequence (O00444 1-391): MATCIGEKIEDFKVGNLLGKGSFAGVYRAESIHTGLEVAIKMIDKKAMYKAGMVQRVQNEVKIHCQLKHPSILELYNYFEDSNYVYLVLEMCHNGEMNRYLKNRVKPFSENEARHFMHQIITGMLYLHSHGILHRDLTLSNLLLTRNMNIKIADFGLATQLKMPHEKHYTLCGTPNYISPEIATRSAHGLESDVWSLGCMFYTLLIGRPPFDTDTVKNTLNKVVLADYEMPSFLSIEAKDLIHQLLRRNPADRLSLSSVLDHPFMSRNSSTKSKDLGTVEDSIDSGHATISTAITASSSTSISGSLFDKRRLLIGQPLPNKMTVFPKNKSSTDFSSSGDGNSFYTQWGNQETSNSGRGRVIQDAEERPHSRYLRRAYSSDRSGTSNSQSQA
Briefly: PLK4 Inhibition Assay (indirect ELISA). The format is biochemical. The method in brief: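 Dephosphorylated (lambda phosphatase) GST-PLK4 activity read by indirect ELISA. Compounds were pre-incubated with enzyme for 15 minutes before ATP was added. IC50 came from a non-linear 4-point logistic fit.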
Background: An ELISA detects its analyte on a solid surface through an enzyme-linked reagent.

The subject of assay [1] is MCF-7 luminal breast cancer cell line. Briefly: Cell growth inhibition, Sulforhodamine B assay (SRB). The format is cell-based. The settings on record: Homo sapiens, MCF7, 120 h; 5 days culture, SRB; read-out: Cell Line GI50 Range, MCF-7. Here is the method:
(§1) Breast cancer cells (MCF-7, MDA-MB-468, HCC1954), colon cancer cells (SW620) and lung cancer cells (A549), together with human mammary epithelial primary cells (HMEC), were seeded (1000 to 4000 per 80 μl per well depending on the cell growth rate) into 96 well plates, 24 hours before compound overlay. Compounds were prepared as 10 mM stock solutions in 100% DMSO which were diluted with DMEM (Dulbecco's Modified Eagle's Medium) cell growth Medium (Invitrogen, Burlington, ON, Canada) containing 10% FBS (Fetal Bovine Serum) to concentrations ranging from 50 nM to 250 μM. Aliquots (20 μl) from each concentration were overlaid to 80 μl of the pre-seeded cells in the 96 well plates to make final concentrations of 10 nM to 50 μM. The cells were cultured for 5 days before the Sulforhodamine B assay (SRB) was performed to determine the compound's cell growth inhibition activity.
(§2) Sulforhodamine B (purchased from Sigma, Oakville, ON, Canada) is a water-soluble dye that binds to the basic amino acids of the cellular proteins. Thus, colorimetric measurement of the bound dye provides an estimate of the total protein mass that is related to the cell number. the cells are fixed in situ by gently aspirating off the culture media and adding 50 μl ice cold 10% Tri-chloroacetic Acid (TCA) per well and incubate at 4° C. for 30-60 min, The plates are washed with water five times and allowed to air dry for 5 min. Addition of 50 μl 0.4% (w/v) SRB solution in 1% (v/v) acetic acid to each well and incubatation for 30 min at RT completes the staining reaction. Following staining, plates are washed four times with 1% acetic acid to remove unbound dye and then allowed to air dry for 5 min. The stain is solubilized with 100 μl of 10 mM Tris pH10.5 per well. Absorbance is read at 570 nm.
(§3) The percentage (%) of relative growth inhibition was calculated by comparing to DMSO treated only cells (100%). GI50's were determined for compounds with cytotoxic activity. The GI50 was calculated using GraphPad PRISM software (GraphPad Software, Inc., San Diego, Calif., USA).

Assay [2] relates to MDA-MB-468 basal breast cancer cell line. The description is as above. The format is cell-based. Conditions: Homo sapiens, MDA-MB-468, 120 h; 5 days culture, SRB; read-out: Cell Line GI50 Range, MDA-MB-468. Here is the method:
as §1, §2, §3

The next assay concerns the target T3, Aurora A (Homo sapiens, UniProt O14965).
T3 construct: purchased Invitrogen PV3612
T3 sequence (O14965 1-403): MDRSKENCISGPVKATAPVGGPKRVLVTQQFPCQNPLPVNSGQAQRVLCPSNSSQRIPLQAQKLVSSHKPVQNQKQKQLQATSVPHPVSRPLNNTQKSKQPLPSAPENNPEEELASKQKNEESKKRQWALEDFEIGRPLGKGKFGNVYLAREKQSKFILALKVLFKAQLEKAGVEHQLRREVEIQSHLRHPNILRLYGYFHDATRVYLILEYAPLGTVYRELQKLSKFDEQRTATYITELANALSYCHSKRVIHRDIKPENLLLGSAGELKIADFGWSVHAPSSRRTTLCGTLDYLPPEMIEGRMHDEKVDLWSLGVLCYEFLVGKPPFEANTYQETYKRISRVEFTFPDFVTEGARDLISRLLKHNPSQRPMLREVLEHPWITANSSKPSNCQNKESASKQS
Briefly: Aurora A Inhibition Assay (Z-Lyte). The assay is classed as biochemical. The settings on record: for IC50: 20 μM ATP, 12 nM Aurora A, read-out: Aurora A IC50 Ranges; for inhibition at 10 µM: 10 μM compound, read-out: Aurora A relative inhibition percentage at a dose of 10 μM. The procedure: Aurora A inhibition was determined using the Z-Lyte assay kit from Invitrogen. The assay was performed using the recommended manufacturer's instructions with 20 μM ATP and 12 nM Aurora A (Invitrogen cat #PV3612). The % inhibition values were determined according to the manufacturer's directions and IC50 values were obtained using a non-linear 4 point logistic curve fit (XLfit4, IDBS)

A further assay concerns the target T4, PLK2 (Homo sapiens, UniProt Q9NYY3).
T4 construct: purchased Invitrogen PV4204
Briefly: PLK2 Inhibition Assay (Z-Lyte). The assay is classed as biochemical. The settings on record: 10 μM compound; read-out: PLK2 relative inhibition percentage at a dose of 10 μM. Here is the method:
PLK2 inhibition was determined using the Z-Lyte assay kit from Invitrogen (cat #PV3802). The assay was performed using the recommended manufacturer's instructions with 60 μM ATP and 133 nM PLK2 (Invitrogen cat #PV4204). The % inhibition values were determined according to the manufacturer's directions and IC50 values were obtained using a non-linear 4 point logistic curve fit (XLfit4, IDBS)

Another assay deals with T5, Aurora B (Homo sapiens, UniProt Q96GD4).
T5 construct: purchased Invitrogen PV3970
T5 sequence (Q96GD4 whole entry): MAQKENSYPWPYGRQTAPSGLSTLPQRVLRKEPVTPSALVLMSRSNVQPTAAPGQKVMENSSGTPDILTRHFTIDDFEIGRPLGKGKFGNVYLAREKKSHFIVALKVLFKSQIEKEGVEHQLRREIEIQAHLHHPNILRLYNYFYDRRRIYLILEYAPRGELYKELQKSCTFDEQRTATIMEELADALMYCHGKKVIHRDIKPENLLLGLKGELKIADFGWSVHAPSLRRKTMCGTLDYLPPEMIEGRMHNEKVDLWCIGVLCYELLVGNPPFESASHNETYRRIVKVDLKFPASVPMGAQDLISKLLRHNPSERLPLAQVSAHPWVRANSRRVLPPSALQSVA
Briefly: Aurora B Inhibition Assay (Z-Lyte). The assay is classed as biochemical. The settings on record: for IC50: 128 μM ATP, 28 nM Aurora B, read-out: Aurora B IC50 Ranges; for inhibition at 10 µM: 10 μM compound, read-out: Aurora B relative inhibition percentage at a dose of 10 μM. The procedure: Aurora B inhibition was determined using the Z-Lyte assay kit from Invitrogen. The assay was performed using the recommended manufacturer's instructions with 128 μM ATP and 28 nM Aurora B (Invitrogen cat #PV3970). The % inhibition values were determined according to the manufacturer's directions and IC50 values were obtained using a non-linear 4 point logistic curve fit (XLfit4, IDBS)

Setting [3] is: 15 μM ATP, 4 nM GST-PLK4, read-out: PLK4 IC50 Ranges.

The structures appear in SMILES notation. Like-named read-outs stand apart in the source and are kept apart here.

T1 sequence (P53350 whole entry): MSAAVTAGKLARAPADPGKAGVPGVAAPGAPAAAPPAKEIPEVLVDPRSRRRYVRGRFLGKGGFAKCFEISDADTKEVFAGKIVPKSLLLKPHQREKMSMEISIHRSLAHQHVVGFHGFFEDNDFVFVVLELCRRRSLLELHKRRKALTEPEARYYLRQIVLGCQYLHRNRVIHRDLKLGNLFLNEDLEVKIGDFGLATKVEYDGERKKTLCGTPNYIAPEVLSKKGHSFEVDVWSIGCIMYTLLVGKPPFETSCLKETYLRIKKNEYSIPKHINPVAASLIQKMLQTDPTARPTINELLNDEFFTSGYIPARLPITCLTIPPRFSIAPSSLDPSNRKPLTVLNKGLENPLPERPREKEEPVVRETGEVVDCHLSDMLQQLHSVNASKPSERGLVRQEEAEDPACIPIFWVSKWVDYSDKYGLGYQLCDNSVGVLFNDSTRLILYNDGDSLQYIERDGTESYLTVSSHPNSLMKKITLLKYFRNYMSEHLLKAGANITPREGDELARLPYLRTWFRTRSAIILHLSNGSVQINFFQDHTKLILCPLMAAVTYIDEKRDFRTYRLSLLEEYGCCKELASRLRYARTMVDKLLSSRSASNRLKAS
T4 sequence (Q9NYY3 whole entry): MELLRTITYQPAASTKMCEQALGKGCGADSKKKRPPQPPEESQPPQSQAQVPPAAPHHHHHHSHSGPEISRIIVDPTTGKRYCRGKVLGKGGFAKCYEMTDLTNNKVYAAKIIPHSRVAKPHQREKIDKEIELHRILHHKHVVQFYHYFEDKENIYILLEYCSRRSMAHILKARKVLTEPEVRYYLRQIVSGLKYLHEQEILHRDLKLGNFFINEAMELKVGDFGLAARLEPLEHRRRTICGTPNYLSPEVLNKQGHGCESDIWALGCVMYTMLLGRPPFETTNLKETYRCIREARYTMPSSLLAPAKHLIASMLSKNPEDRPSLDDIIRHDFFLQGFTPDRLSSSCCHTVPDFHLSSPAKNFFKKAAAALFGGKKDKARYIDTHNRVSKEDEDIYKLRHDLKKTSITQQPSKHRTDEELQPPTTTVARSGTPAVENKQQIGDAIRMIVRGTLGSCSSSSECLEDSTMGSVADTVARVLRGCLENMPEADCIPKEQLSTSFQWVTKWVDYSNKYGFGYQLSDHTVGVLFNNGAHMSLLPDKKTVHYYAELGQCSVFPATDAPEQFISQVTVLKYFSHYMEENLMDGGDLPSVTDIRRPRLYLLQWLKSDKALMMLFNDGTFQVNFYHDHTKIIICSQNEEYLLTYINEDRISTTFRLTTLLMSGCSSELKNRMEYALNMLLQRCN

In the case of `O=C1Nc2ccccc2/C1=C\c1ccc2[nH]cnc2c1` [Example A19, (E)-3-((1H-benzo[d]imidazol-5-yl)methylene)indolin-2-one], the 50% inhibitory concentration (IC50) at PLK1 and at human PLK4 (setting [3]) was 5 to 50 µM throughout. Further, the GI50 in assay [1] is 5 to 20 µM; in assay [2] it was under 5 µM.
Take `CNC(=O)c1ccc2c(c1)NC(=O)C2=Cc1ccc2cn[nH]c2c1` (mixture of isomers) [Example A10, (E and Z)-(3-((1H-indazol-6-yl)methylene)-N-methyl-2-oxoindoline-6-carboxamide]: the IC50 on PLK1 and on human PLK4 (setting [3]) was under 5 µM in each case. Besides, the GI50 in assay [1] and in assay [2] was 20 to 50 µM throughout.
With `O=C1Nc2ccc(Cl)cc2C1=Cc1ccc2c(-c3cccnc3)n[nH]c2c1` (mixture of isomers) [Example A94, (E and Z)-5-chloro-3-((3-(pyridin-3-yl)-1H-indazol-6-yl)methylene)-indolin-2-one], the IC50 at Aurora A is over 50 µM; on human PLK4 (setting [3]), under 5 µM; on Aurora B it was under 5 µM. Besides, the inhibition at 10 µM at PLK1 and at PLK2 was under 50% each time.
As for `O=C1Nc2ccccc2/C1=C\c1ccc2c(/C=C/c3cccnc3)n[nH]c2c1` [Example A113, (E)-3-((3-((E)-2-(pyridin-3-yl)vinyl)-1H-indazol-6-yl)methylene)-indolin-2-one], the half-inhibitory concentration (IC50) on Aurora A, on human PLK4 (setting [3]) and at Aurora B was under 5 µM each time. Moreover, the inhibition at 10 µM at PLK1 and at PLK2 was under 50% in each case.
In the case of `COc1ccc2c(c1)/C(=C\c1ccc3c(/C=C/c4ccncc4)n[nH]c3c1)C(=O)N2` [Example A86, (E)-5-methoxy-3-((3-((E)-2-(pyridin-4-yl)vinyl)-1H-indazol-6-yl)methylene)indolin-2-one], the values for the inhibition at 10 µM on Aurora A, on PLK1 and on PLK2 were over 50%, under 50% and under 50%, respectively. Also, the half-maximal inhibitory concentration (IC50) on human PLK4 (setting [3]) and at Aurora B was under 5 µM each time.
Consider `COc1ccc2c(c1)/C(=C\c1ccc3c(-c4ccc(N5CCOCC5)nc4)n[nH]c3c1)C(=O)N2` [Example A112, (E)-5-methoxy-3-((3-(6-morpholinopyridin-3-yl)-1H-indazol-6-yl)-methylene)indolin-2-one], for which the IC50 at Aurora A, at human PLK4 (setting [3]) and on Aurora B was under 5 µM in each case. Also, the inhibition at 10 µM on PLK1 and on PLK2 was under 50% in each case.
As for `O=C1Nc2ccc(Br)cc2/C1=C\c1ccc2c(/C=C/c3ccncc3)n[nH]c2c1` [Example A62, (E)-5-bromo-3-((3-((E)-2-(pyridin-4-yl)vinyl)-1H-indazol-6-yl)-methylene)indolin-2-one], the IC50 at Aurora A, on human PLK4 (setting [3]) and at Aurora B was under 5 µM each time. Moreover, the inhibition at 10 µM on PLK1 and on PLK2 was under 50% in each case.
`CC(=O)Nc1ccc2c(c1)NC(=O)/C2=C/c1ccc2cn[nH]c2c1` [Example A13, (E)-N-(3-((1H-indazol-6-yl)methylene)-2-oxoindolin-6-yl)acetamide]: the inhibition at 10 µM at Aurora A was over 50%; at PLK2 it was under 50%; on Aurora B it was under 50%. The concentration for half-maximal inhibition (IC50) at PLK1 is 5 to 50 µM; at human PLK4 (setting [3]), under 5 µM.
For the molecule `COc1ccc2c(c1)/C(=C\c1ccc3c(/C=C/c4cc[n+]([O-])cc4)n[nH]c3c1)C(=O)N2` [Example A117, 4-((E)-2-(6-((E)-(5-methoxy-2-oxoindolin-3-ylidene)methyl)-1H-indazol-3-yl)vinyl)pyridine 1-oxide], the IC50 on Aurora A, on human PLK4 and on Aurora B was under 5 µM each time. Also, the inhibition at 10 µM at PLK1 and at PLK2 was under 50% throughout.
Turning to `O=C1Nc2ncccc2/C1=C\c1ccc2cn[nH]c2c1` [Example A67, (E)-3-((1H-indazol-6-yl)methylene)-1H-pyrrolo[2,3-b]pyridin-2(3H)-one], the inhibition at 10 µM at Aurora A, at PLK1, at PLK2 and on Aurora B was over 50% in each case. Besides, the IC50 on human PLK4 (setting [3]) was under 5 µM.
With `O=C1Nc2ccccc2C1=Cc1ccc2c(-c3cccnc3)n[nH]c2c1` (mixture of isomers) [Example A93, (E and Z)-3-((3-(pyridin-3-yl)-1H-indazol-6-yl)methylene)indolin-2-one], the IC50 at Aurora A, at human PLK4 (setting [3]) and on Aurora B was under 5 µM each time. The inhibition at 10 µM on PLK1 and on PLK2 was under 50% in each case.
Take `O=C1Nc2ccccc2C1=Cc1ccc2c(-c3cncnc3)n[nH]c2c1` (mixture of isomers) [Example A100, (E and Z)-3-((3-(pyrimidin-5-yl)-1H-indazol-6-yl)methylene)-indolin-2-one]: the inhibition at 10 µM on Aurora A was over 50%; on PLK1 it was under 50%; at PLK2, under 50%. Also, the IC50 on human PLK4 (setting [3]) and on Aurora B was under 5 µM in each case.
As for `O=C1Nc2ccccc2/C1=C\c1cc(-c2ccncc2)c2cn[nH]c2c1` [Example A54a, (E)-3-((4-(pyridin-4-yl)-1H-indazol-6-yl)methylene)indolin-2-one], the inhibition at 10 µM on Aurora A and at PLK2 was over 50% in each case. In addition, the results for the IC50 on PLK1, at human PLK4 (setting [3]) and on Aurora B were over 50 µM, under 5 µM and under 5 µM, respectively.

What is called IC50 is the concentration that gives 50% inhibition. For orientation: GI50 means the concentration that inhibits growth by half. As a reminder, the inhibition is how much of the control response was suppressed.
